Test results as given in publication PMC10850145, “Hormonal steroids induce multidrug resistance and stress response genes in Neisseria gonorrhoeae by binding to MtrR” (Nature Communications, 2024).
Several values for one entry are separate records, joined by “and”; a condition that tells them apart may be missing. Identical values can stand only once. Like-named read-outs stand apart in the source and are kept apart here.

Assays:
MtrR W136A = target: T1, MtrR W136A (Neisseria gonorrhoeae, UniProt P39897, W136A); assay: biochemical; format: binding
T1 construct: Hexa-histidine tag with TEV protease cleavage site (N, cleaved yes); made in house; host or cells: E. coli Rosetta Gami B(DE3) pLysS

MtrR R176E = target: T2, MtrR R176E (Neisseria gonorrhoeae, UniProt P39897, R176E); assay: biochemical; format: binding
T2 construct: Hexa-histidine tag with TEV protease cleavage site (N, cleaved yes); made in house; host or cells: E. coli Rosetta Gami B(DE3) pLysS

MtrR D171A = target: T3, MtrR D171A (Neisseria gonorrhoeae, UniProt P39897, D171A); assay: biochemical; format: binding; conditions: ITC
T3 construct: Hexa-histidine tag with TEV protease cleavage site (N, cleaved yes); made in house; host or cells: E. coli Rosetta Gami B(DE3) pLysS

gonococcal strain FA19 = assay: MIC of steroidal hormones on GC agar, strain FA19; format: cell-based; conditions: Neisseria gonorrhoeae
Protocol: (§1) To determine the minimal inhibitory concentrations (MICs) by the steroidal hormones and their effect on antimicrobial susceptibility, 5 x 10^5 CFU and 1:5 serial dilutions of gonococcal strains were spotted on GC agar plates containing different concentrations of antibiotics and/or hormones as indicated. Antimicrobial susceptibility was assessed after 24 h incubation.
(§2) Table S1. Steroidal hormones are substrates of the MtrCDE efflux pump
(§3) Progesterone Testosterone
(§4) *Minimal inhibition concentration is defined by the lowest concentration at which visible growth is […]

FA19 mtrD::kan (KH14) = assay: MIC of steroidal hormones on GC agar, FA19 mtrD::kan (KH14); format: cell-based, Neisseria gonorrhoeae
Protocol: as §1, §2, §3, §4

wild type FA19 = assay: Antimicrobial susceptibility spot assay with hormone plus azithromycin or polymyxin B, wild type FA19; format: cell-based, Neisseria gonorrhoeae
Protocol: (§5) Fig. 5 Effect of steroidal hormones on gonococcal antimicrobial susceptibility.
as §1

[1] = tested on: mutant strain JF1 (ΔmtrR); assay: Antimicrobial susceptibility spot assay with hormone plus antibiotic, JF1 (ΔmtrR); format: cell-based, Neisseria gonorrhoeae; conditions: derivative lacking MtrR (JF1), azithromycin
Protocol: as §5, §1

rpoH-lacZ expression = format: cell-based, Neisseria gonorrhoeae
N. gonorrhoeae = tested on: N. gonorrhoeae; parameters: method as in PMID 816438; conditions: cited from earlier work
lptA-lacZ expression = assay: β-galactosidase assay, lptA-lacZ fusion (negative control gene); conditions: WT-lptA-lacZ
ngo1249-lacZ expression = assay: β-galactosidase assay, ngo1249-lacZ fusion (negative control gene); conditions: WT-NGO1249-lacZ
[2] = rpoH-lacZ, ΔmtrR + mtrR D171A in trans, 6.25 µM hormone, single replicate
[3] = rpoH-lacZ, ΔmtrR + mtrR D171A in trans, 12.5 µM hormone, single replicate
[4] = rpoH-lacZ, ΔmtrR + mtrR D171A in trans, 25 µM hormone, single replicate
[5] = rpoH-lacZ, ΔmtrR + mtrR D171A in trans, 50 µM hormone, single replicate

T1 sequence (P39897 whole entry W136A): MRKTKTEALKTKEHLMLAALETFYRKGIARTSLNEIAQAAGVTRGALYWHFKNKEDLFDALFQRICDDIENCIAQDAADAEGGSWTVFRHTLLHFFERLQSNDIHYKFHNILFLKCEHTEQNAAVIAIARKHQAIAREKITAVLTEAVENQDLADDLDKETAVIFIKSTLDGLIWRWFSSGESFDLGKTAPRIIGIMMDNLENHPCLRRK
T3 sequence (P39897 whole entry D171A): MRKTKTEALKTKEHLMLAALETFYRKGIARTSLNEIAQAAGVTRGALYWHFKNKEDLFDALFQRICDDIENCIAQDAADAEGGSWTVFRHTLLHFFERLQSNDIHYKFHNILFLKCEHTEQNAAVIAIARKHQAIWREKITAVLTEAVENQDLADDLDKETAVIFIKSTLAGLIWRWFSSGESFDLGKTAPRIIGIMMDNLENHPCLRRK
T2 sequence (P39897 whole entry R176E): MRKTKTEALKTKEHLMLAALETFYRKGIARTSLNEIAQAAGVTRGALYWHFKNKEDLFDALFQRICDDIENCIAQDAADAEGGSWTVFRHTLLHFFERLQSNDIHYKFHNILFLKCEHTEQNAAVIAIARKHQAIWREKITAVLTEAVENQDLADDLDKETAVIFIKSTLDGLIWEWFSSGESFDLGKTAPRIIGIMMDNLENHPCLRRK

For `C[C@]12CC[C@@H]3c4ccc(O)cc4CC[C@H]3[C@@H]1CC[C@@H]2O` [β-Estradiol, β-estradiol], the Kd (MtrR W136A) was 1.06 ± 0.04 µM, the Kd (MtrR R176E) was 0.72 ± 0.15 µM and the “binding to MtrR D171A” value (MtrR D171A) was “no observable binding”. The MIC (gonococcal strain FA19; FA19, 24 h) was > 1180 µM, the MIC (gonococcal strain FA19; strain FA19, GC agar, read-out: MIC) was > 320 µg/mL and the MIC (FA19 mtrD::kan (KH14); Neisseria gonorrhoeae) was 320 µg/mL and 1180 µM. For the same compound, the “effect of mtrD deletion on MIC” value (FA19 mtrD::kan (KH14); vs FA19) was “lowered”, the “resistance to polymyxin B in presence of hormone” value (wild type FA19; strain FA19) was “increased resistance” and the “resistance to azithromycin in presence of sub-lethal hormone” value (wild type FA19; wild-type FA19, GC agar, 24 h, visual) was “elevated levels of resistance”. The “change in antibiotic resistance in presence of sub-lethal hormone” value [1] was “did not show change”, the “Miller units, Mean” value (rpoH-lacZ expression; Mean of plate rows 5-8, plate columns 1-6 (first strain), 6.25 µM hormone) was 42 Miller units and the “Miller units, Mean” value (rpoH-lacZ expression; Mean of plate rows 5-8, plate columns 1-6 (first strain), 12.5 µM hormone) was 61 Miller units. The “Miller units, Mean” value (rpoH-lacZ expression; Mean of plate rows 5-8, plate columns 1-6 (first strain), 25 µM hormone) was 70 Miller units, the “Miller units, Mean” value (rpoH-lacZ expression; Mean of plate rows 5-8, plate columns 1-6 (first strain), 50 µM hormone) was 78 Miller units and the “Miller units, Mean” value (rpoH-lacZ expression; Mean of plate rows 5-8, plate columns 7-12 (second strain), 6.25 µM hormone) was 73.6 Miller units. For the same compound, the “Miller units, Mean” value (rpoH-lacZ expression; Mean of plate rows 5-8, plate columns 7-12 (second strain), 12.5 µM hormone) was 75.3 Miller units, the “Miller units, Mean” value (rpoH-lacZ expression; Mean of plate rows 5-8, plate columns 7-12 (second strain), 25 µM hormone) was 76.5 Miller units and the “Miller units, Mean” value (rpoH-lacZ expression; Mean of plate rows 5-8, plate columns 7-12 (second strain), 50 µM hormone) was 79.6 Miller units. For the same compound, the “induction of rpoH expression” value (rpoH-lacZ expression; complemented (MtrR+) strains, increasing hormone) was “could be induced”, the “induction of rpoH expression” value (rpoH-lacZ expression; loss of MtrR or MtrR-D171A strain) was “abrogated” and the Miller units (rpoH-lacZ expression; [2]) was 73 Miller units. The “β-galactosidase activity (Miller units)” value (rpoH-lacZ expression; [2]) was 64 Miller units and 67 Miller units and 90 Miller units, the Miller units (rpoH-lacZ expression; [3]) was 67 Miller units and the “β-galactosidase activity (Miller units)” value (rpoH-lacZ expression; [3]) was 68 Miller units and 72 Miller units and 94 Miller units. For the same compound, the Miller units (rpoH-lacZ expression; [4]) was 76 Miller units, the “β-galactosidase activity (Miller units)” value (rpoH-lacZ expression; [4]) was 84 Miller units and 81 Miller units and 65 Miller units and the Miller units (rpoH-lacZ expression; [5]) was 82 Miller units. For the same compound, the “β-galactosidase activity (Miller units)” value (rpoH-lacZ expression; [5]) was 80 Miller units and 76 Miller units, the “β-galactosidase activity (Miller units)” value (rpoH-lacZ expression; rpoH-lacZ, ΔmtrR + mtrR WT in trans, 6.25 µM hormone, single replicate) was 29 Miller units and 43 Miller units and 45 Miller units and 49 Miller units and the “β-galactosidase activity (Miller units)” value (rpoH-lacZ expression; rpoH-lacZ, ΔmtrR + mtrR WT in trans, 12.5 µM hormone, single replicate) was 60 Miller units and 54 Miller units and 64 Miller units and 67 Miller units. For the same compound, the “β-galactosidase activity (Miller units)” value (rpoH-lacZ expression; rpoH-lacZ, ΔmtrR + mtrR WT in trans, 25 µM hormone, single replicate) was 91 Miller units and 57 Miller units and 68 Miller units and 64 Miller units, the “β-galactosidase activity (Miller units)” value (rpoH-lacZ expression; rpoH-lacZ, ΔmtrR + mtrR WT in trans, 50 µM hormone, single replicate) was 89 Miller units and 63 Miller units and 78 Miller units and 82 Miller units and the “β-galactosidase activity (Miller units)” value (rpoH-lacZ expression; rpoH-lacZ, ΔmtrR strain, 6.25 µM hormone, single replicate) was 253 Miller units and 160 Miller units and 91 Miller units. The “β-galactosidase activity (Miller units)” value (rpoH-lacZ expression; rpoH-lacZ, ΔmtrR strain, 12.5 µM hormone, single replicate) was 161 Miller units and 99 Miller units, the “β-galactosidase activity (Miller units)” value (rpoH-lacZ expression; rpoH-lacZ, ΔmtrR strain, 25 µM hormone, single replicate) was 232 Miller units and 156 Miller units and 133 Miller units and the “β-galactosidase activity (Miller units)” value (rpoH-lacZ expression; rpoH-lacZ, ΔmtrR strain, 50 µM hormone, single replicate) was 195 Miller units and 151 Miller units and 114 Miller units. The Miller units (rpoH-lacZ expression; rpoH-lacZ, ΔmtrR, 6.25 µM hormone, single replicate) was 150 Miller units, the Miller units (rpoH-lacZ expression; rpoH-lacZ, ΔmtrR, 12.5 µM hormone, single replicate) was 165 Miller units and the Miller units (rpoH-lacZ expression; rpoH-lacZ, ΔmtrR, 25 µM hormone, single replicate) was 177 Miller units. For the same compound, the Miller units (rpoH-lacZ expression; rpoH-lacZ, ΔmtrR, 50 µM hormone, single replicate) was 178 Miller units, the Miller units (rpoH-lacZ expression; single well, plate rows 5-8, plate columns 1-6 (first strain), 6.25 µM hormone) was 29 Miller units and 43 Miller units and 45 Miller units and 49 Miller units and the Miller units (rpoH-lacZ expression; single well, plate rows 5-8, plate columns 1-6 (first strain), 12.5 µM hormone) was 60 Miller units and 54 Miller units and 64 Miller units and 67 Miller units. For the same compound, the Miller units (rpoH-lacZ expression; single well, plate rows 5-8, plate columns 1-6 (first strain), 25 µM hormone) was 91 Miller units and 57 Miller units and 68 Miller units and 64 Miller units, the Miller units (rpoH-lacZ expression; single well, plate rows 5-8, plate columns 1-6 (first strain), 50 µM hormone) was 89 Miller units and 63 Miller units and 78 Miller units and 82 Miller units and the Miller units (rpoH-lacZ expression; single well, plate rows 5-8, plate columns 7-12 (second strain), 6.25 µM hormone) was 64 Miller units and 67 Miller units and 73 Miller units and 90 Miller units. The Miller units (rpoH-lacZ expression; single well, plate rows 5-8, plate columns 7-12 (second strain), 12.5 µM hormone) was 68 Miller units and 72 Miller units and 67 Miller units and 94 Miller units, the Miller units (rpoH-lacZ expression; single well, plate rows 5-8, plate columns 7-12 (second strain), 25 µM hormone) was 84 Miller units and 81 Miller units and 76 Miller units and 65 Miller units and the Miller units (rpoH-lacZ expression; single well, plate rows 5-8, plate columns 7-12 (second strain), 50 µM hormone) was 80 Miller units and 82 Miller units and 76 Miller units. The “β-galactosidase activity, rpoH-lacZ, Mean” value (rpoH-lacZ expression; strain WT (FA19/pLES94-rpoH), hormone 6.25 µM) was 83 Miller units, the “β-galactosidase activity, rpoH-lacZ, Mean” value (rpoH-lacZ expression; strain WT (FA19/pLES94-rpoH), hormone 12.5 µM) was 113 Miller units and the “β-galactosidase activity, rpoH-lacZ, Mean” value (rpoH-lacZ expression; strain WT (FA19/pLES94-rpoH), hormone 25 µM) was 148 Miller units. For the same compound, the “β-galactosidase activity, rpoH-lacZ, Mean” value (rpoH-lacZ expression; strain WT (FA19/pLES94-rpoH), hormone 50 µM) was 162 Miller units, the “activation of rpoH” value (rpoH-lacZ expression; strain producing MtrR R176E) was “clearly weaker activation” and the “β-galactosidase activity, rpoH-lacZ, Mean” value (rpoH-lacZ expression; strain ΔmtrR (FA19 ∆mtrR/pLES94-rpoH), hormone 6.25 µM) was 163 Miller units. For the same compound, the “β-galactosidase activity, rpoH-lacZ, Mean” value (rpoH-lacZ expression; strain ΔmtrR (FA19 ∆mtrR/pLES94-rpoH), hormone 12.5 µM) was 152 Miller units, the “β-galactosidase activity, rpoH-lacZ, Mean” value (rpoH-lacZ expression; strain ΔmtrR (FA19 ∆mtrR/pLES94-rpoH), hormone 25 µM) was 175 Miller units and the “β-galactosidase activity, rpoH-lacZ, Mean” value (rpoH-lacZ expression; strain ΔmtrR (FA19 ∆mtrR/pLES94-rpoH), hormone 50 µM) was 160 Miller units. For the same compound, the “β-galactosidase activity, rpoH-lacZ, Mean” value (rpoH-lacZ expression; strain ΔmtrR + mtrR D171A (pGCC3-mtrR D171A), hormone 6.25 µM) was 74 Miller units, the “β-galactosidase activity, rpoH-lacZ, Mean” value (rpoH-lacZ expression; strain ΔmtrR + mtrR D171A (pGCC3-mtrR D171A), hormone 12.5 µM) was 75 Miller units and the “β-galactosidase activity, rpoH-lacZ, Mean” value (rpoH-lacZ expression; strain ΔmtrR + mtrR D171A (pGCC3-mtrR D171A), hormone 25 µM) was 76 Miller units. For the same compound, the “β-galactosidase activity, rpoH-lacZ, Mean” value (rpoH-lacZ expression; strain ΔmtrR + mtrR D171A (pGCC3-mtrR D171A), hormone 50 µM) was 80 Miller units, the “β-galactosidase activity, rpoH-lacZ, Mean” value (rpoH-lacZ expression; strain ΔmtrR + mtrR WT (pGCC3-mtrR), hormone 6.25 µM) was 42 Miller units and the “β-galactosidase activity, rpoH-lacZ, Mean” value (rpoH-lacZ expression; strain ΔmtrR + mtrR WT (pGCC3-mtrR), hormone 12.5 µM) was 61 Miller units. For the same compound, the “β-galactosidase activity, rpoH-lacZ, Mean” value (rpoH-lacZ expression; strain ΔmtrR + mtrR WT (pGCC3-mtrR), hormone 25 µM) was 70 Miller units, the “β-galactosidase activity, rpoH-lacZ, Mean” value (rpoH-lacZ expression; strain ΔmtrR + mtrR WT (pGCC3-mtrR), hormone 50 µM) was 78 Miller units and the “growth inhibition of N. gonorrhoeae” value (N. gonorrhoeae) was “arrest N. gonorrhoeae growth”. The “Mean Miller units” value (lptA-lacZ expression; 0.1 µM hormone) was 4.54 Miller units, the “Mean Miller units” value (lptA-lacZ expression; 1 µM hormone) was 7 Miller units and the “Mean Miller units” value (lptA-lacZ expression; 10 µM hormone) was 4.45 Miller units. For the same compound, the “Mean Miller units” value (lptA-lacZ expression; 50 µM hormone) was 6.62 Miller units, the “Mean Miller units” value (lptA-lacZ expression; 100 µM hormone) was 6 Miller units and the “Mean Miller units” value (ngo1249-lacZ expression; 0.1 µM hormone) was 5 Miller units. For the same compound, the “Mean Miller units” value (ngo1249-lacZ expression; 1 µM hormone) was 5 Miller units, the “Mean Miller units” value (ngo1249-lacZ expression; 10 µM hormone) was 5.32 Miller units and the “Mean Miller units” value (ngo1249-lacZ expression; 50 µM hormone) was 4.874 Miller units. For the same compound, the “Mean Miller units” value (ngo1249-lacZ expression; 100 µM hormone) was 4.606 Miller units.
